The text below walks through data of patent publication US9839642B2, “Beta-tetrazolyl-propionic acids as metallo-beta-lactamase inhibitors” (priority 2014, dated 2017).

Assay [1] has as its target IMP-1 (Serratia marcescens, UniProt P52699). The assay is described as follows: Enzyme activity: determination of IC50, fluorescence assay with CCF2-FA substrate. It is filed as biochemical. The following applies: IMP-1 enzyme 2 pM, CCF2-FA 1.25 μM, 2 hours at 25° C.; read-out: IMP1 IC50. The method in brief:
(§1)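 Final enzyme levels differed by target: 1 pM NDM-1, 2 pM IMP-1, 30 pM VIM-1. Each was incubated 2 hours at 25° C with test compound and 1.25 μM CCF2-FA, and 460 nm fluorescence (405 nm excitation) was fitted by 4-parameter curve to obtain IC50.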

The target of assay [2] is NDM-1 (Klebsiella pneumoniae, UniProt C7C422). The assay is described as above. The class given is biochemical. The following applies: NDM-1 enzyme 1 pM, CCF2-FA 1.25 μM, 2 hours at 25° C.; read-out: NDM1 IC50. The method in brief:
as §1

The target in assay [3] is VIM-1 (Pseudomonas aeruginosa, UniProt A0A0F7KYQ8). The description is as above. The class given is biochemical. The following applies: VIM-1 enzyme 30 pM, CCF2-FA 1.25 μM, 2 hours at 25° C.; read-out: VIM1 IC50. In a few lines:
as §1

In assay [4] the test system is Escherichia coli expressing NDM-1 (CLB30016). Description: Antibiotic potentiation activity: synergistic concentration (MITC95) with imipenem, growth by OD600. It is filed as cell-based. The following applies: E. coli CLB30016 (NDM-1), 95% inhibition of growth. In a few lines:
(§2)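 Colonies from overnight agar plates (35 °C) were suspended in saline and diluted 1:100 into 1.1× CAMHB. Inhibitor (final 200 μM to 0.195 μM) was combined with imipenem at 1 or 4 μg/ml, incubated 22–24 h at 35 °C, and absorbance read; MITC95 is the lowest inhibitor concentration giving 95% growth inhibition.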

In assay [5] the test system is Klebsiella pneumoniae expressing VIM-1 (IHMA599644). The description is as above. It is filed as cell-based. The following applies: K. pneumoniae IHMA599644 (VIM-1), 95% inhibition of growth. The method in brief:
as §2

The test system of assay [6] is Serratia marcescens expressing IMP-1 (CL5741). The description is as above. It is filed as cell-based. The following applies: S. marcescens CL5741 (IMP-1), 95% inhibition of growth. The method in brief: as §2

Chain of IMP-1 (P52699 19-246, looked up, species assumed): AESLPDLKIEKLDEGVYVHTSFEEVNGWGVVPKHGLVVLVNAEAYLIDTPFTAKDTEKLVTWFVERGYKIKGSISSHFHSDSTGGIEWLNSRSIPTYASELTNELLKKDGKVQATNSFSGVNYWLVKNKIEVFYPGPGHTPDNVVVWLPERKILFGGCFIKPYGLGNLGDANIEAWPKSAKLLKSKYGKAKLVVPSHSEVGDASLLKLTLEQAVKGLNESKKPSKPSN
Chain of NDM-1 (C7C422 29-270, looked up, species assumed): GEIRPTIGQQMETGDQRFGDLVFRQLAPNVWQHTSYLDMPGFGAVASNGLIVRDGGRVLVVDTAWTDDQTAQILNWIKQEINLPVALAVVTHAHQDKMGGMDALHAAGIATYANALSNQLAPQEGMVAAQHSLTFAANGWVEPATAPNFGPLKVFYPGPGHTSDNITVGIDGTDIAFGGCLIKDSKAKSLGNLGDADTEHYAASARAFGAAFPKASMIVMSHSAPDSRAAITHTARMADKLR

Turning to `CC(C)C[C@H](C(=O)O)[C@H](Cc1ccc(Oc2ccc(C(C)N)nc2)nc1)c1nn[nH]n1` (stereo partly drawn) [Example 380, (2S)-2-[(1S)-2-(6-{[6-(1-aminoethyl)pyridin-3-yl]oxy}pyridin-3-yl)-1-(2H-tetrazol-5-yl)ethyl]-4-methylpentanoic acid], the half-inhibitory concentration (IC50) (usually the concentration that gives 50% inhibition) is 64 nM in assay [1], 12 nM in assay [2] and 2.4 nM in assay [3]. The “NDM1 EC30016 MITC95” value in assay [4] was 4.7 µM. Besides, the “VIM1 KP599644 MITC95” value in assay [5] stood at 50 µM. Moreover, in assay [6], the “IMP1 SM5741 MITC95” value is 4.7 µM.
As to `CC(C)C[C@H](C(=O)O)[C@H](Cc1ccc(Oc2ccccc2)nc1)c1nn[nH]n1` [Example 381, (2S)-4-methyl-2-[(1S)-2-(6-phenoxypyridin-3-yl)-1-(2H-tetrazol-5-yl)ethyl]pentanoic acid], the IC50 in assay [1] was 86 nM; in assay [2] it was 24 nM; in assay [3], 4.1 nM. Further, the “NDM1 EC30016 MITC95” value in assay [4] was 9.4 µM. Further, the “VIM1 KP599644 MITC95” value in assay [5] came out at 75 µM. The “IMP1 SM5741 MITC95” value in assay [6] was 4.7 µM.
Take `CC(C)C[C@H](C(=O)O)[C@H](Cc1ccc(Oc2cccc(C3CCCNC3)c2)nc1)c1nn[nH]n1` (stereo partly drawn) [Example 382, (2S)-4-methyl-2-[(1S)-2-[6-(3-piperidin-3-ylphenoxy)pyridin-3-yl]-1-(2H-tetrazol-5-yl)ethyl]pentanoic acid]: the concentration for half-maximal inhibition (IC50) is 170 nM in assay [1], 140 nM in assay [2] and 34 nM in assay [3]. Also, in assay [4], the “NDM1 EC30016 MITC95” value worked out at 12.5 µM. Moreover, the “VIM1 KP599644 MITC95” value in assay [5] turned out to be 75 µM. The “IMP1 SM5741 MITC95” value in assay [6] is 12.5 µM.
Consider `CC(C)C[C@H](C(=O)O)[C@H](Cc1ccc(Oc2ccc(CO)cc2)nc1)c1nn[nH]n1` [Example 383, (2S)-2-[(1S)-2-{6-[4-(hydroxymethyl)phenoxy]pyridin-3-yl}-1-(2H-tetrazol-5-yl)ethyl]-4-methylpentanoic acid], for which the values for the IC50 in assay [1], in assay [2] and in assay [3] were 150 nM, 34 nM and 56 nM, respectively. For the same compound, the “NDM1 EC30016 MITC95” value in assay [4] turned out to be 25 µM. For the same compound, the “VIM1 KP599644 MITC95” value in assay [5] came out at 150 µM. The “IMP1 SM5741 MITC95” value in assay [6] was 12.5 µM.
Consider `CC(C)C[C@H](C(=O)O)[C@H](Cc1ccc(Oc2ccc(CC(C)(C)N)cc2)nc1)c1nn[nH]n1` [Example 386, (2S)-2-[(1S)-2-{6-[4-(2-amino-2-methylpropyl)phenoxy]pyridin-3-yl}-1-(2H-tetrazol-5-yl)ethyl]-4-methylpentanoic acid], for which the IC50 in assay [1] was 180 nM; in assay [2] it was 120 nM; in assay [3], 100 nM. Further, the “NDM1 EC30016 MITC95” value in assay [4] came out at 25 µM. Also, the “VIM1 KP599644 MITC95” value in assay [5] is over 200 µM. Further, the “IMP1 SM5741 MITC95” value in assay [6] turned out to be 12.5 µM.
Regarding `CC(C)C[C@H](C(=O)O)[C@H](Cc1ccc(Oc2cccc3c2CCNC3)nc1)c1nn[nH]n1` [Example 388, (2S)-4-methyl-2-[(1S)-2-[6-(1,2,3,4-tetrahydroisoquinolin-5-yloxy)pyridin-3-yl]-1-(2H-tetrazol-5-yl)ethyl]pentanoic acid], the concentration for half-maximal inhibition (IC50) stood at 340 nM in assay [1], 130 nM in assay [2] and 18 nM in assay [3]. Besides, in assay [4], the “NDM1 EC30016 MITC95” value turned out to be 25 µM. The “VIM1 KP599644 MITC95” value in assay [5] is 38 µM. The “IMP1 SM5741 MITC95” value in assay [6] was 18.8 µM.
With `CC(C)C[C@H](C(=O)O)[C@H](Cc1ccc(Oc2cccc3c2CCCN3)nc1)c1nn[nH]n1` [Example 389, (2S)-4-methyl-2-[(1S)-2-[6-(1,2,3,4-tetrahydroquinolin-5-yloxy)pyridin-3-yl]-1-(2H-tetrazol-5-yl)ethyl]pentanoic acid], the values for the IC50 in assay [1], in assay [2] and in assay [3] were 58 nM, 16 nM and 4.4 nM, respectively. Further, in assay [4], the “NDM1 EC30016 MITC95” value was 25 µM. Also, in assay [5], the “VIM1 KP599644 MITC95” value was determined as 100 µM. The “IMP1 SM5741 MITC95” value in assay [6] is 6.2 µM.
Regarding `CC(C)C[C@H](C(=O)O)[C@H](Cc1ccc(Oc2ccc(CN)cc2)nc1)c1nn[nH]n1` [Example 390, (2S)-2-[(1S)-2-{6-[4-(aminomethyl)phenoxy]pyridin-3-yl}-1-(2H-tetrazol-5-yl)ethyl]-4-methylpentanoic acid], the IC50 in assay [1] worked out at 240 nM; in assay [2] it was 35 nM; in assay [3], 5.3 nM. Further, in assay [4], the “NDM1 EC30016 MITC95” value came out at 1.6 µM. In addition, the “VIM1 KP599644 MITC95” value in assay [5] was 25 µM. For the same compound, the “IMP1 SM5741 MITC95” value in assay [6] was determined as 12.5 µM.
In the case of `CC(C)C[C@H](C(=O)O)[C@H](Cc1ccc(Oc2ccccn2)nc1)c1nn[nH]n1` [Example 391, (2S)-4-methyl-2-[(1S)-2-[6-(pyridin-2-yloxy)pyridin-3-yl]-1-(2H-tetrazol-5-yl)ethyl]pentanoic acid], the IC50 in assay [1] came out at 640 nM; in assay [2], 44 nM; in assay [3] it was 52 nM. Further, the “NDM1 EC30016 MITC95” value in assay [4] was 25 µM. In addition, the “VIM1 KP599644 MITC95” value in assay [5] turned out to be 100 µM. The “IMP1 SM5741 MITC95” value in assay [6] was found to be 25 µM.
For `CCC[C@H](C(=O)O)[C@H](Cc1ccccc1-c1ccccc1)c1nn[nH]n1` [Example 393, (2S)-2-[(1S)-2-biphenyl-2-yl-1-(2H-tetrazol-5-yl)ethyl]pentanoic acid], the IC50 is 1000 nM in assay [1], 3.2 nM in assay [2] and 4.5 nM in assay [3]. Moreover, the “NDM1 EC30016 MITC95” value in assay [4] amounted to 4.7 µM. Besides, the “VIM1 KP599644 MITC95” value in assay [5] is 75 µM. Moreover, the “IMP1 SM5741 MITC95” value in assay [6] was found to be 25 µM.
Consider `CCC[C@H](C(=O)O)[C@H](Cc1ccccc1-c1ccc(C(N)=O)cc1)c1nn[nH]n1` [Example 394, (2S)-2-[(1S)-2-(4′-carbamoylbiphenyl-2-yl)-1-(2H-tetrazol-5-yl)ethyl]pentanoic acid], for which the IC50 in assay [1] was 450 nM; in assay [2], 2.2 nM; in assay [3], 3.9 nM. Besides, the “NDM1 EC30016 MITC95” value in assay [4] was 4.7 µM. Besides, the “VIM1 KP599644 MITC95” value in assay [5] was 38 µM. In addition, in assay [6], the “IMP1 SM5741 MITC95” value was determined as 25 µM.
With `CCC[C@H](C(=O)O)[C@H](Cc1ccccc1-c1ccc(C2CCNCC2)cc1)c1nn[nH]n1` [Example 395, (2S)-2-[(1S)-2-(4′-piperidin-4-ylbiphenyl-2-yl)-1-(2H-tetrazol-5-yl)ethyl]pentanoic acid], the results for the IC50 in assay [1], in assay [2] and in assay [3] were 120 nM, 0.1 nM and 0.48 nM, respectively. In addition, the “NDM1 EC30016 MITC95” value in assay [4] is 6.2 µM. Also, the “VIM1 KP599644 MITC95” value in assay [5] came to 16 µM. Also, in assay [6], the “IMP1 SM5741 MITC95” value came to 6.25 µM.
For `CCC[C@H](C(=O)O)[C@H](Cc1ccccc1-c1cccnc1)c1nn[nH]n1` [Example 396, (2S)-2-[(1S)-2-(2-pyridin-3-ylphenyl)-1-(2H-tetrazol-5-yl)ethyl]pentanoic acid], the IC50 in assay [1] is 2800 nM; in assay [2], 9.2 nM; in assay [3] it was 18 nM. Besides, in assay [4], the “NDM1 EC30016 MITC95” value came to 9.4 µM. Besides, in assay [5], the “VIM1 KP599644 MITC95” value turned out to be 50 µM. Also, the “IMP1 SM5741 MITC95” value in assay [6] was found to be 75 µM.
On to `CCC[C@H](C(=O)O)[C@H](Cc1ccccc1-c1ccncc1)c1nn[nH]n1` [Example 397, (2S)-2-[(1S)-2-(2-pyridin-4-ylphenyl)-1-(2H-tetrazol-5-yl)ethyl]pentanoic acid], for which the IC50 in assay [1] came to 5000 nM; in assay [2] it was 13 nM; in assay [3], 16 nM. Besides, the “NDM1 EC30016 MITC95” value in assay [4] worked out at 6.2 µM. Moreover, the “VIM1 KP599644 MITC95” value in assay [5] amounted to 75 µM. Besides, the “IMP1 SM5741 MITC95” value in assay [6] amounted to 200 µM.
